Peptide text beside a SMILES is read from it.
Key:
[1] = test system: NK activity; experiment: NK activity (LDH released from YAC-1 cells after 4 h exposure to PBMC) in 5-FU immune-suppressed rats, Example 1; assay type: in vivo; conditions: for NK activity: 5 days after TA1 treatment
Protocol: (§1) In the following examples, which are not intended to be limiting, a continuous infusion of TA1 (N-acetyl-[…]OH) (SEQ ID NO:1) was evaluated in a cancer therapy model with the use of surgically implanted osmotic minipumps, which deliver fluids at a constant flow rate for 5 days. Rats were given 5-fluorouracil (5-FU) to cause immune suppression, and then treated with injected or infused TA1 8 days later (the nadir of white cell count after 5-FU). Treatment groups, 8 rats each, were: control (minipumps with saline); low dose TA1 (0.2 mg/Kg sc injection; empty minipumps); high dose TA1 (3.5 mg/Kg sc injection; empty minipumps); and high dose infused TA1 (3.5 mg/Kg infused by minipumps). Immune parameters were determined at baseline and 8 days after 5-FU treatment (day 1 of TA1 treatment), and also at 5, 12, 20, and 27 days after TA1 treatment.
(§2) 10 week old rats, weighing 250-300 g, received 100 mg/kg 5-fluorouracil (5-FU) for immune suppression.
(§3) 8 days after 5-FU treatment, rats were randomly assigned to one of the following groups (n=8): • Control (saline in minipump) • Low dose TA1, injected s.c. at 0.2 mg/Kg (with empty minipumps) • High dose TA1, injected s.c. at 3.5 mg/Kg (with empty minipumps) • Continuous infusion TA1, provided by minipump at 3.5 mg/Kg/5 days
(§4) Immune parameters were determined at baseline and 8 days after 5-FU treatment (day 1 of TA1 treatment), and also at 5, 12, 20, and 27 days after TA1 treatment.
(§5) The evaluations included NK activity (LDH released from YAC-1 cells after 4 h exposure to PBMC), total leukocyte number (judged by physical cytofluorimetric parameters, after verifying the specificity by monoclonal antibody), total lymphocyte number (CD3+ by flow cytometry), and activated lymphocytes (CD25+CD3+ by flow cytometry).

[2] = test system: total leukocyte number; experiment: total white blood cell count in 5-FU immune-suppressed rats, Example 1; assay type: in vivo
Protocol: as §1, §2, §3, §4, §5

[3] = test system: activated lymphocytes (CD3+CD25+); experiment: activated lymphocytes (CD25+CD3+ by flow cytometry) in 5-FU immune-suppressed rats, Example 1; assay type: in vivo
Protocol: as §1, §2, §3, §4, §5

[4] = test system: granulocytes; experiment: granulocytes (flow cytometry, HIS-48) in 5-FU immune-suppressed rats, Example 2; assay type: in vivo
Protocol: (§6) 10 week old rats, weighing 250-300 g, received […] 5-FU for immune suppression.
(§7) 8 days after 5-FU treatment, rats were randomly assigned to one of the following groups (n=15): • Control (saline in minipump) • High dose TA1, injected s.c. at 3.5 mg/Kg (with empty minipumps) • Continuous infusion TA1, provided by minipump at 3.5 mg/Kg/5 days
(§8) Immune parameters were determined at baseline and 8 days after 5-FU treatment (day 1 of TA1 treatment), and also at 5 and 14 days after TA1 treatment.
(§9) The evaluations included total leukocyte number (judged by physical cytofluorimetric parameters, after verifying the specificity by monoclonal antibody), granulocytes (flow cytometry using FITC anti rat granulocyte HIS-48), total lymphocyte number (CD3+ by flow cytometry), T helper lymphocytes (CD4+ by flow cytometry), activated lymphocytes (CD25+CD3+ by flow cytometry), and cytokine expression in plasma (IL-2 and IFN-γ by ELISA).

[5] = test system: total lymphocytes (CD3+); experiment: total lymphocyte number (CD3+ by flow cytometry) in 5-FU immune-suppressed rats, Example 2; assay type: in vivo
Protocol: as §6, §7, §8, §9

[6] = test system: T helper lymphocytes (CD3+CD4+); experiment: T helper lymphocytes (CD4+ by flow cytometry) in 5-FU immune-suppressed rats, Example 2; assay type: in vivo
Protocol: as §6, §7, §8, §9

[7] = test system: activated lymphocytes (CD25+CD3+); experiment: activated lymphocytes (CD25+CD3+ by flow cytometry) in 5-FU immune-suppressed rats, Example 2; assay type: in vivo
Protocol: as §6, §7, §8, §9

[8] = test system: IL-2; experiment: cytokine expression in plasma by ELISA: IL-2, Example 2; assay type: in vivo, rats; conditions: for plasma level of IL-2: 14 days after TA1
Protocol: as §6, §7, §8, §9

[9] = test system: IFN-γ; experiment: cytokine expression in plasma by ELISA: IFN-γ, Example 2; assay type: in vivo, rats
Protocol: as §6, §7, §8, §9

[10] = observation of adverse events in treated rats; assay type: in vivo
Protocol: as §7

[11] = continuous infusion by minipump 3.5 mg/Kg/5 days
[12] = high dose injected s.c. 3.5 mg/Kg
[13] = low dose injected s.c. 0.2 mg/Kg
[14] = continuous infusion 3.5 mg/Kg/5 days
[15] = one animal, high dose injection followed by infusion

SMILES: O=c1[nH]cc(F)c(=O)[nH]1 [5-FU, 5-fluorouracil]
- NK activity after 5-FU ([1]; 8 days after 100 mg/kg 5-FU, baseline 42±5%): 9±2%
- total white blood cell count after 5-FU ([2]; 8 days after 100 mg/kg 5-FU, baseline 14,590±2,071): 2,597±582 cells/mm^3
- activated lymphocytes (CD3+CD25+) after 5-FU ([3]; 8 days after 100 mg/kg 5-FU, baseline 65±21): 37±10 cells/mm^3
- number of granulocytes after 5-FU ([4]; 8 days after 100 μg/kg 5-FU, baseline 4,485±1,116): 1,249±432 cells/mm^3
- total lymphocytes (CD3+) after 5-FU ([5]; 8 days after 100 μg/kg 5-FU, baseline 10,904±1,973): 1,740±560 cells/mm^3
- T helper lymphocytes (CD3+CD4+) after 5-FU ([6]; 8 days after 100 μg/kg 5-FU, baseline 5,411±1,084): 1,710±449 cells/mm^3

SMILES: CC[C@H](C)[C@H](NC(=O)[C@H](CCC(=O)O)NC(=O)[C@H](CO)NC(=O)[C@H](CO)NC(=O)[C@@H](NC(=O)[C@H](CC(=O)O)NC(=O)[C@@H](NC(=O)[C@H](C)NC(=O)[C@H](C)NC(=O)[C@H](CC(=O)O)NC(=O)[C@H](CO)NC(C)=O)C(C)C)[C@@H](C)O)C(=O)N[C@H](C(=O)N[C@H](C(=O)N[C@@H](CCCCN)C(=O)N[C@@H](CC(=O)O)C(=O)N[C@@H](CC(C)C)C(=O)N[C@@H](CCCCN)C(=O)N[C@@H](CCC(=O)O)C(=O)N[C@@H](CCCCN)C(=O)N[C@@H](CCCCN)C(=O)N[C@@H](CCC(=O)O)C(=O)N[C@H](C(=O)N[C@H](C(=O)N[C@@H](CCC(=O)O)C(=O)N[C@@H](CCC(=O)O)C(=O)N[C@@H](C)C(=O)N[C@@H](CCC(=O)O)C(=O)N[C@@H](CC(N)=O)C(=O)O)C(C)C)C(C)C)[C@@H](C)O)[C@@H](C)O [TA1] (Ac-SDAAVDTSSEITTKDLKEKKEVVEEAEN-OH)
- recovery of NK activity [1, 11]: complete recovery of NK activity to baseline levels
- NK activity ([1]; continuous infusion by minipump 3.5 mg/Kg/5 days, baseline 42±5%): 32±4%
- time to significant recovery of NK activity [1, 12]: 5 days
- NK activity [1, 12]: 16±2%
- time to significant recovery of NK activity [1, 13]: 12 days
- NK activity [1, 13]: 12±3%
- recovery of total white blood cell count [2, 11]: statistically significant and complete recovery to baseline levels after only 5 days
- recovery of total white blood cell count ([2]; low or high dose TA1 by s.c. injection (0.2 or 3.5 mg/Kg)): trended towards a sooner increase in recovery compared to untreated animals
- activated lymphocytes (CD3+CD25+) ([3]; continuous infusion 3.5 mg/Kg/5 days, 12 days after TA1 treatment): 422±105 cells/mm^3
- activated lymphocytes (CD3+CD25+) ([3]; continuous infusion 3.5 mg/Kg/5 days, 20 days after TA1 treatment): 446±73 cells/mm^3
- activated lymphocytes (CD3+CD25+) ([3]; high dose injected 3.5 mg/Kg, 12 days after TA1 treatment): 297±136 cells/mm^3
- activated lymphocytes (CD3+CD25+) ([3]; high dose injected 3.5 mg/Kg, 20 days after TA1 treatment): 321±75 cells/mm^3
- number of granulocytes ([4]; TA1 by s.c. injection 3.5 mg/Kg, 5 days): 9,924±3,218 cells/mm^3
- number of granulocytes ([4]; continuous infusion 3.5 mg/Kg/5 days, 5 days): 14,652±2,463 cells/mm^3
- number of granulocytes relative to other groups ([4]; continuous infusion 3.5 mg/Kg/5 days, after 14 days): still the highest
- number of granulocytes ([4]; one animal, both injection (3.5 mg/Kg) and continuous infusion (another 3.5 mg/Kg), after 5 days): 19,376 cells/mm^3
- time to recovery of total lymphocytes (CD3+) to baseline levels [5, 14]: 5 days
- levels of lymphocytes ([5]; continuous infusion 3.5 mg/Kg/5 days, mean of other animals): 9,644±961 cells/mm^3
- time to recovery of total lymphocytes (CD3+) to baseline levels ([5]; injected TA1 3.5 mg/Kg s.c.): 14 days
- levels of lymphocytes ([5]; one animal, both injection and continuous infusion (3.5 mg/Kg each)): 9,765 cells/mm^3
- activated lymphocytes [7, 14]: 428±89 cells/mm^3
- percentage of lymphocytes which were activated [7, 14]: 4 % of lymphocytes
- activated lymphocytes [7, 15]: 976 cells/mm^3
- percentage of lymphocytes which were activated [7, 15]: 10 % of lymphocytes
- recovery of T helper cell levels ([6]; TA1 by either delivery method (injection or continuous infusion, 3.5 mg/Kg)): sufficient to return the levels of T helper cells to baseline
- plasma level of IL-2 [8, 14]: 42 ± 7 pg/mL
- plasma level of IL-2 ([8]; injected TA1 3.5 mg/Kg s.c.): 21 ± 16 pg/mL
- plasma level of IL-2 relative to other animals ([8]; one animal, both injection and continuous infusion): even greater levels of both of the Th1 cytokines measured
- plasma level of IFN-γ ([9]; TA1 by injection 3.5 mg/Kg s.c., 14 days after treatment): 10 ± 1 pg/mL
- plasma level of IFN-γ ([9]; continuous infusion 3.5 mg/Kg/5 days, 14 days after treatment): 14 ± 5 pg/mL
- plasma level of IFN-γ ([9]; one animal, both injection and continuous infusion, after 14 days): 45 pg/mL
- plasma level of IFN-γ relative to other groups ([9]; s.c. injected TA1 3.5 mg/Kg, 5 days after treatment): higher plasma levels of IFN-γ
- adverse events ([10]; doses of TA1 15 times higher than usual (one animal 30 times higher than usual)): No adverse events were observed
- adverse events / condition of the animal ([10]; one animal, both injection (3.5 mg/Kg) and continuous infusion (another 3.5 mg/Kg)): healthy and vigorous, with no obvious adverse events

Source: patent US20100221274A1, “METHOD OF ADMINISTERING A THYMOSIN ALPHA 1 PEPTIDE” (SCICLONE PHARMACEUTICALS, INC., priority 2001, published 2010)
